Reference: PubChem BioAssay (NCI)
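Cells were grown in 96-well plates and exposed to each compound for 48 hours at five concentrations; endpoints were interpolated linearly between bracketing concentrations, or set to the highest concentration if not reached. Abbreviation: GI50, concentration required for 50% inhibition of growth. TGI is the concentration that stops growth completely.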

Columns and labels:
Assay in all cases: DTP human tumour cell line panel, 48 h
UACC-257 melanoma = tested on: UACC-257 melanoma
NCI-H226 lung = tested on: NCI-H226 lung
SF-268 CNS = tested on: SF-268 CNS
OVCAR-3 ovarian = tested on: OVCAR-3 ovarian
NCI-H522 lung = tested on: NCI-H522 lung
OVCAR-4 ovarian = tested on: OVCAR-4 ovarian
SF-539 CNS = tested on: SF-539 CNS
CAKI-1 renal = tested on: CAKI-1 renal
HS 578T breast = tested on: HS 578T breast
HOP-92 NSCLC = tested on: HOP-92 NSCLC
HOP-62 NSCLC = tested on: HOP-62 NSCLC
PC-3 prostate = tested on: PC-3 prostate
SK-MEL-5 melanoma = tested on: SK-MEL-5 melanoma
COLO 205 colon = tested on: COLO 205 colon
SNB-19 CNS = tested on: SNB-19 CNS
U251 CNS = tested on: U251 CNS
MALME-3M melanoma = tested on: MALME-3M melanoma
CCRF-CEM leukemia = tested on: CCRF-CEM leukemia
HCT-116 colon = tested on: HCT-116 colon
A498 renal = tested on: A498 renal
RXF 393 renal = tested on: RXF 393 renal
SN12C renal = tested on: SN12C renal
MDA-MB-435 = tested on: MDA-MB-435
MOLT-4 leukemia = tested on: MOLT-4 leukemia
T-47D breast = tested on: T-47D breast
SR leukemia = tested on: SR leukemia
SK-MEL-2 melanoma = tested on: SK-MEL-2 melanoma
SK-MEL-28 melanoma = tested on: SK-MEL-28 melanoma
MCF7 breast = tested on: MCF7 breast
NCI-H23 lung = tested on: NCI-H23 lung
A549 NSCLC = tested on: A549 NSCLC
HL-60(TB) leukemia = tested on: HL-60(TB) leukemia
SW-620 colon = tested on: SW-620 colon
SK-OV-3 ovarian = tested on: SK-OV-3 ovarian
HT29 colon = tested on: HT29 colon
KM12 colon = tested on: KM12 colon
OVCAR-8 ovarian = tested on: OVCAR-8 ovarian
MDA-MB-231 breast = tested on: MDA-MB-231 breast
TK-10 renal = tested on: TK-10 renal
M14 melanoma = tested on: M14 melanoma
SNB-75 CNS = tested on: SNB-75 CNS
UACC-62 melanoma = tested on: UACC-62 melanoma
EKVX NSCLC = tested on: EKVX NSCLC
ACHN renal = tested on: ACHN renal
DU-145 prostate = tested on: DU-145 prostate
LOX IMVI melanoma = tested on: LOX IMVI melanoma
NCI-H460 lung = tested on: NCI-H460 lung
SF-295 CNS = tested on: SF-295 CNS
IGROV1 ovarian = tested on: IGROV1 ovarian
NCI/ADR-RES ovarian = tested on: NCI/ADR-RES ovarian
HCC-2998 colon = tested on: HCC-2998 colon
K-562 leukemia = tested on: K-562 leukemia
UO-31 renal = tested on: UO-31 renal
RPMI-8226 leukemia = tested on: RPMI-8226 leukemia
BT-549 breast = tested on: BT-549 breast
HCT-15 colon = tested on: HCT-15 colon
OVCAR-5 ovarian = tested on: OVCAR-5 ovarian
786-0 renal = tested on: 786-0 renal

Question: How did the GI50 (UACC-257 melanoma) turn out when `O=C1c2ccccc2-c2c1c1ccc([N+](=O)[O-])cc1c(=O)n2CCNCCCNCCn1c2c(c3ccc([N+](=O)[O-])cc3c1=O)C(=O)c1ccccc1-2` was run?
Answer: 8890 nM

Question: What about the TGI (UACC-257 melanoma) of the same compound?
Answer: 25100 nM

Question: And the GI50 (NCI-H226 lung)?
Answer: 125 nM

Question: What about the TGI (NCI-H226 lung) of the same compound?
Answer: 3160 nM

Question: And the GI50 (SF-268 CNS)?
Answer: 88.1 nM

Question: And the TGI (SF-268 CNS)?
Answer: 12500 nM

Question: And the GI50 (OVCAR-3 ovarian)?
Answer: 638 nM

Question: What about the TGI (OVCAR-3 ovarian) of the same compound?
Answer: 5190 nM

Question: And the GI50 (NCI-H522 lung)?
Answer: 1140 nM

Question: And the TGI (NCI-H522 lung)?
Answer: 19500 nM

Question: What about the GI50 (OVCAR-4 ovarian) of the same compound?
Answer: 215 nM

Question: And the TGI (OVCAR-4 ovarian)?
Answer: 4920 nM

Question: What about the GI50 (SF-539 CNS) of the same compound?
Answer: 872 nM

Question: What about the TGI (SF-539 CNS) of the same compound?
Answer: 6040 nM

Question: What about the GI50 (CAKI-1 renal) of the same compound?
Answer: 822 nM

Question: What about the TGI (CAKI-1 renal) of the same compound?
Answer: 21700 nM

Question: What about the GI50 (HS 578T breast) of the same compound?
Answer: 1340 nM

Question: And the TGI (HS 578T breast)?
Answer: 31400 nM

Question: What about the GI50 (HOP-92 NSCLC) of the same compound?
Answer: 803 nM

Question: What about the TGI (HOP-92 NSCLC) of the same compound?
Answer: 4160 nM

Question: And the GI50 (HOP-62 NSCLC)?
Answer: 742 nM

Question: What about the TGI (HOP-62 NSCLC) of the same compound?
Answer: 7510 nM

Question: What about the GI50 (PC-3 prostate) of the same compound?
Answer: 547 nM

Question: And the TGI (PC-3 prostate)?
Answer: 9180 nM

Question: And the GI50 (SK-MEL-5 melanoma)?
Answer: 347 nM

Question: And the TGI (SK-MEL-5 melanoma)?
Answer: 7510 nM

Question: And the GI50 (COLO 205 colon)?
Answer: 433 nM

Question: What about the TGI (COLO 205 colon) of the same compound?
Answer: 9770 nM

Question: And the GI50 (SNB-19 CNS)?
Answer: 126 nM

Question: And the TGI (SNB-19 CNS)?
Answer: 4940 nM

Question: And the GI50 (U251 CNS)?
Answer: 166 nM

Question: And the TGI (U251 CNS)?
Answer: 3630 nM

Question: And the GI50 (MALME-3M melanoma)?
Answer: 626 nM

Question: What about the TGI (MALME-3M melanoma) of the same compound?
Answer: 30800 nM

Question: What about the GI50 (CCRF-CEM leukemia) of the same compound?
Answer: 6.45 nM

Question: What about the TGI (CCRF-CEM leukemia) of the same compound?
Answer: 3970 nM

Question: And the GI50 (HCT-116 colon)?
Answer: 129 nM

Question: What about the TGI (HCT-116 colon) of the same compound?
Answer: 4500 nM

Question: And the GI50 (A498 renal)?
Answer: 1820 nM

Question: And the TGI (A498 renal)?
Answer: 19100 nM

Question: And the GI50 (RXF 393 renal)?
Answer: 389 nM

Question: And the TGI (RXF 393 renal)?
Answer: 13800 nM

Question: What about the GI50 (SN12C renal) of the same compound?
Answer: 144 nM

Question: What about the TGI (SN12C renal) of the same compound?
Answer: 4040 nM

Question: What about the GI50 (MDA-MB-435) of the same compound?
Answer: 1390 nM

Question: And the TGI (MDA-MB-435)?
Answer: 18100 nM

Question: What about the GI50 (MOLT-4 leukemia) of the same compound?
Answer: 5 nM

Question: What about the TGI (MOLT-4 leukemia) of the same compound?
Answer: 18600 nM

Question: And the GI50 (T-47D breast)?
Answer: 2070 nM

Question: What about the TGI (T-47D breast) of the same compound?
Answer: 11300 nM

Question: And the GI50 (SR leukemia)?
Answer: 5 nM

Question: And the TGI (SR leukemia)?
Answer: 18800 nM

Question: And the GI50 (SK-MEL-2 melanoma)?
Answer: 4000 nM

Question: What about the TGI (SK-MEL-2 melanoma) of the same compound?
Answer: 21700 nM

Question: What about the GI50 (SK-MEL-28 melanoma) of the same compound?
Answer: 1290 nM

Question: What about the TGI (SK-MEL-28 melanoma) of the same compound?
Answer: 10200 nM

Question: And the GI50 (MCF7 breast)?
Answer: 708 nM

Question: What about the TGI (MCF7 breast) of the same compound?
Answer: 27100 nM

Question: What about the GI50 (NCI-H23 lung) of the same compound?
Answer: 68.2 nM

Question: What about the TGI (NCI-H23 lung) of the same compound?
Answer: 6970 nM

Question: And the GI50 (A549 NSCLC)?
Answer: 521 nM

Question: What about the TGI (A549 NSCLC) of the same compound?
Answer: 17600 nM

Question: What about the GI50 (HL-60(TB) leukemia) of the same compound?
Answer: 1500 nM

Question: And the TGI (HL-60(TB) leukemia)?
Answer: 50000 nM

Question: And the GI50 (SW-620 colon)?
Answer: 64.1 nM

Question: What about the TGI (SW-620 colon) of the same compound?
Answer: 5680 nM

Question: And the GI50 (SK-OV-3 ovarian)?
Answer: 6750 nM

Question: And the TGI (SK-OV-3 ovarian)?
Answer: 22900 nM

Question: What about the GI50 (HT29 colon) of the same compound?
Answer: 10.5 nM

Question: And the TGI (HT29 colon)?
Answer: 5520 nM

Question: And the GI50 (KM12 colon)?
Answer: 172 nM

Question: What about the TGI (KM12 colon) of the same compound?
Answer: 11300 nM

Question: What about the GI50 (OVCAR-8 ovarian) of the same compound?
Answer: 98.9 nM

Question: What about the TGI (OVCAR-8 ovarian) of the same compound?
Answer: 8760 nM

Question: And the GI50 (MDA-MB-231 breast)?
Answer: 33 nM

Question: And the TGI (MDA-MB-231 breast)?
Answer: 530 nM

Question: And the GI50 (TK-10 renal)?
Answer: 1270 nM

Question: And the TGI (TK-10 renal)?
Answer: 22100 nM

Question: What about the GI50 (M14 melanoma) of the same compound?
Answer: 888 nM

Question: What about the TGI (M14 melanoma) of the same compound?
Answer: 23500 nM

Question: What about the GI50 (SNB-75 CNS) of the same compound?
Answer: 445 nM

Question: What about the TGI (SNB-75 CNS) of the same compound?
Answer: 2410 nM

Question: And the GI50 (UACC-62 melanoma)?
Answer: 372 nM

Question: And the TGI (UACC-62 melanoma)?
Answer: 2030 nM

Question: And the GI50 (EKVX NSCLC)?
Answer: 4870 nM

Question: And the TGI (EKVX NSCLC)?
Answer: 28200 nM

Question: And the GI50 (ACHN renal)?
Answer: 338 nM

Question: What about the TGI (ACHN renal) of the same compound?
Answer: 24500 nM

Question: What about the GI50 (DU-145 prostate) of the same compound?
Answer: 960 nM

Question: And the TGI (DU-145 prostate)?
Answer: 21100 nM

Question: And the GI50 (LOX IMVI melanoma)?
Answer: 79.1 nM

Question: And the TGI (LOX IMVI melanoma)?
Answer: 2550 nM

Question: What about the GI50 (NCI-H460 lung) of the same compound?
Answer: 2680 nM

Question: What about the TGI (NCI-H460 lung) of the same compound?
Answer: 18700 nM

Question: And the GI50 (SF-295 CNS)?
Answer: 71.5 nM

Question: What about the TGI (SF-295 CNS) of the same compound?
Answer: 19900 nM

Question: And the GI50 (IGROV1 ovarian)?
Answer: 24.9 nM

Question: What about the TGI (IGROV1 ovarian) of the same compound?
Answer: 4380 nM

Question: What about the GI50 (NCI/ADR-RES ovarian) of the same compound?
Answer: 923 nM

Question: What about the TGI (NCI/ADR-RES ovarian) of the same compound?
Answer: 25900 nM

Question: What about the GI50 (HCC-2998 colon) of the same compound?
Answer: 992 nM

Question: What about the TGI (HCC-2998 colon) of the same compound?
Answer: 13300 nM

Question: What about the GI50 (K-562 leukemia) of the same compound?
Answer: 49.2 nM

Question: What about the TGI (K-562 leukemia) of the same compound?
Answer: 28200 nM

Question: And the GI50 (UO-31 renal)?
Answer: 541 nM

Question: And the TGI (UO-31 renal)?
Answer: 6840 nM

Question: What about the GI50 (RPMI-8226 leukemia) of the same compound?
Answer: 5.38 nM

Question: And the TGI (RPMI-8226 leukemia)?
Answer: 139 nM

Question: What about the GI50 (BT-549 breast) of the same compound?
Answer: 2570 nM

Question: And the TGI (BT-549 breast)?
Answer: 50000 nM

Question: What about the GI50 (HCT-15 colon) of the same compound?
Answer: 197 nM

Question: And the TGI (HCT-15 colon)?
Answer: 16100 nM

Question: What about the GI50 (OVCAR-5 ovarian) of the same compound?
Answer: 673 nM

Question: What about the TGI (OVCAR-5 ovarian) of the same compound?
Answer: 6420 nM

Question: What about the GI50 (786-0 renal) of the same compound?
Answer: 51.5 nM

Question: And the TGI (786-0 renal)?
Answer: 2920 nM
